Laboratory results from patent US20130317092A1 (priority 2007, published 2013).
Numbered stars: 1 amine (or outer) side, 2 acyl side, 3 side chain; on linkers, the order of the positions; unused ones are H or OH. Bridge positions count the residues as written; N and C are the ends. Square brackets hold non-standard residues; d marks the D form. Peptide text beside a SMILES is read from it. I, II: the chains in the order shown. Actinocin(9to1) = Cc1c2oc3c(C)ccc(C(=O)[*:1])c3nc-2c(C(=O)[*:2])c(N)c1=O; NMeV = CN[C@H](C(=O)O)C(C)C; Sar = CNCC(=O)O

Columns and labels:
activated caspase-3 = assay: Activated caspase-3 immunostaining in Meg-01 cells; format: cell-based, human; conditions: for caspase-3 activation induced by Thapsi or ARP, with co-treatment: Thapsi or ARP plus inhibitor; for caspase-3 activation induced by Thapsi, with co-treatment: Thapsi plus inhibitor
AChmiRNA (miRNA-181a) = AChmiRNA (miRNA-181a) level by real-time RT-PCR in Meg-01 cells; format: cell-based, human; conditions: for AChmiRNA levels on co-treatment with Thapsi: Meg-01 cells co-treated with Thapsi and inhibitor; for ARP-induced decrease of AChmiRNA on co-treatment: Meg-01 cells, ARP plus inhibitor
AChE-R = AChE-R protein immunocytochemistry in Meg-01 cells; format: cell-based, human; conditions: 24 hours
PKCβII = PKCβII immunocytochemistry in Meg-01 cells; format: cell-based, human; conditions: 24 hours
Bcl-2 = Bcl-2 immunostaining in Meg-01 cells; format: cell-based, human
AChE-S = AChE-S protein immunocytochemistry in Meg-01 cells; format: cell-based, human; conditions: 24 hours
Meg-01 cells [1] = assay: Ploidy / DNA content of Meg-01 cells by FACS and propidium iodide; format: cell-based, human; conditions: 72 hours
Meg-01 cells [2] = assay: Nuclear area measurement of Meg-01 cells; format: cell-based, human; conditions: 24 hours
Meg-01 cells [3] = assay: Scanning electron microscopy of Meg-01 cell surface (megakaryocytic maturation); format: cell-based, human; conditions: 24 hour treatment
AChE-R mRNA = AChE-R mRNA level (RT-PCR, fluorescent in situ hybridization) in Meg-01 cells; format: cell-based, human
Meg-01 cells [4] = assay: DNA fragmentation by TUNEL assay in Meg-01 cells; format: cell-based, human
activated caspase-9 = assay: Activated caspase-9 immunostaining in Meg-01 cells; format: cell-based, human
[5] = test system: Murine macrophage RAW 264.7 cells; assay: Nitric oxide production (nitrite, Griess) by RAW 264.7 macrophages; format: cell-based; conditions: LPS 1 μg/ml, IFN-γ 4 ng/ml, oligos 100 nM
Protocol: Murine macrophage RAW 264.7 cells were cultured in 48 well plates (50×10^3 cells per well). The production of NO by these macrophages was examined following various stimuli (6 repetitions for each treatment) at three time intervals (6, 12 and 24 hours) as depicted in FIGS. 27a, 27b and 27c.
Mouse RAW cells, human U937 cells and primary human macrophages were treated for 24 h with 1 μM CpG oligonucleotides or 1 μg/ml bacterial lipopolysaccharide added to standard growth medium
Interleukin 6 expression was assayed by QRT-PCR, nitric oxide was measured by Griess assay and prostaglandin E2 levels were measured by R&D ELISA kit according to manufacturer's instructions.

[6] = test system: 3′UTR fragment of human AChE cDNA; assay: Dot blot hybridization of LNA-modified oligos with PCR-amplified AChE 3′UTR; format: binding; conditions: 5′-32P-labeled LNA-modified oligos
Protocol: The common AChE 3′-UTR sequence was obtained from AY750146 (all mRNA sequence beginning from stop codon). 3′-UTR of AChE was amplified by RT-PCR using Promega reagents and total RNA isolated with QIAGEN RNeasy kit from post-mortem human brain, with primers including XhoI, NotI restriction sites in 5′ and 3′ primer, respectively. Primer sequences used were: (5′): […], (3′) (SEQ ID NO: 111): […] (SEQ ID NO: 112). Annealing temperature of 57° C. was used. PCR product was purified with QIAGEN QiaQuick kit, size of fragment verified in agarose gel, spotted on a dry HyBond nylon membrane in 2 ul drops, cross-linked to the membrane using 1200 mJ UV burst, and baked for 1 hr at 80° C. Membrane was blocked for at least 2 hours in solution containing 50% deionized formamide, 5×SSPE, 0.5% SDS, 5×Denhardt's Solution at 50° C.; and hybridized o/night in same conditions with 5′-32P-labeled probes mimicking miRs wholly or with mismatches as indicated, washed 4 times at 37° C. in 3×SSPE, 5% SDS, 10×Denhardt's solution; once at 42° C. in 1×SSPE, 1% SDS; exposed over up to 3 days to a PhosphorImager (Molecular Dynamics/GE Healthcare) plate, and signal quantified using FujiFilm's ImageGauge 4 software.

RAW 264.7 cells = assay: NO production of LPS-challenged RAW 264.7 cells transfected with miR mimics; format: cell-based, murine
Protocol: Murine RAW 264.7 macrophage-derived cell line known to express TLR4 and respond to endotoxin by production of pro-inflammatory mediators such as Nitric Oxide (NO), prostaglandins, and cytokines as ILE IL6, and TNFalpha were used (described in the preceding examples e.g., Examples 7 and 8). Cells were grown in 5 ml flasks in a humidified atmosphere in Dulbecco's modified Eagle's medium (DMEM, Biological Industries) supplemented with 10% fetal calf serum (FCS) and 2 mM L-glutamine at 37° C., 5% CO2.
Griess method was used to determine NO2 levels in medium in which macrophages had been cultured. 100 μl of each sample+100 μl of Griess reagent (1% sulfanilamide/0.1% naphthylethylenediamine dihydrochloride/2.5% H3PO4)—were incubated 10-20 min at room temperature. Read absorbance at 546 nm in micro-ELISA reader.
miR 132 and 182* (SEQ ID NOs: 54 and 93, respectively) were LNA modified (products are designated with SEQ ID NOs. 107 and 108, respectively). A locked nucleic acid (LNA), often referred to as inaccessible RNA, is a modified RNA. Ribose moiety of LNA nucleotide is modified with an extra bridge connecting 2′ and 4′ carbons. The bridge “locks” the ribose in 3′-endo structural conformation, which is often found in A-form of DNA or RNA. LNA nucleotides can be mixed with DNA or RNA bases in the oligonucleotide whenever desired. The locked ribose conformation enhances base stacking and backbone pre-organization.
electroporation and lipofection were used for cell transfection.
Oligos containing LNA modifications on every third base (Table 4) were obtained from Sigma-Proligo. Transfection was performed with Lipofectamine 2000 (Invitrogen, Carlsbad, Calif.) using 3 μg of oligo per sample. Briefly, cells were brought to 80%-90% confluence at the time of transfection. For each transfection sample, 3 μg oligo were diluted in 1 ml of RPMI-1640 while the lipofectamine reagent was diluted in 1 ml of RPMI-1640. After 5 minutes the diluted oligo and lipofectamine were combined and incubated for 20 minutes. This was added to the cells within the 75 ml flask, containing 6 ml RPMI complete+GM-CSF ([…] final oligo concentration). […]
To determine cell viability 40 μl of thiazolyl blue tetrazolium bromide (MTT) reagent (Sigma) at 5 mg/ml was added per sample well, incubated for 30 minutes at 37° C. Medium was removed, 400 μl of DMSO was added per well and absorbance read at 550 nm Griess method was used to determine NO2 levels in conditioned medium from macrophage cultures. […] Absorbance was read at 546 nm in a micro-ELISA reader. TNF-α, IL-6 levels were measured by Enzyme-Linked Immunosorbent Assay (ELISA) according to manufacturer's procedures (R&D Systems kits, MTA00, M6000B, respectively). All absorbance results were normalized using standard curves. […]

`CO[C@H](C/C=C\C=C\CC/C=C/C[C@H](C)/C=C/C(=C\C(=O)O)CC(=O)O)/C(C)=C\C=C(/C)C(=O)O` [Bongkrekic acid] was tested, and the “caspase-3 activation induced by Thapsi or ARP, with co-treatment” value (activated caspase-3; 24 hours) was “inhibited the caspase-3 activation induced by ER-calcium releasing or ARP”.

In the case of `O=S(=O)(NCCNCC=Cc1ccc(Br)cc1)c1cccc2cnccc12` [H89, N-(2-((p-Bromocinnamyl)amino)ethyl)-5-isoquinolinesulfonamide], the “AChmiRNA levels on co-treatment with Thapsi” value (AChmiRNA (miRNA-181a)) is reported as “restored the control levels of AChmiRNA”, the “ARP-induced decrease of AChmiRNA on co-treatment” value (AChmiRNA (miRNA-181a)) is reported as “prevented the ARP effect” and the “caspase-3 activation induced by Thapsi or ARP, with co-treatment” value (activated caspase-3; 24 hours) is reported as “prevented the differentiation-associated caspase-3 activation induced by both Thapsi and ARP”. The “increase in AChE-R immunoreactivity elicited by Thapsi or ARP, with co-treatment” value (AChE-R) was “blocked the characteristic increase in AChE-R immunoreactivity”.

`CCCCCCCCCCCCCC(=O)O[C@@H]1[C@@H](C)[C@@]2(O)[C@@H](C=C(CO)C[C@]3(O)C(=O)C(C)=C[C@@H]23)[C@@H]2C(C)(C)[C@]12OC(C)=O` [PMA, phorbol 12-myristate 13-acetate] was tested, and the “staining intensity for PKCβ” value (PKCβII) was “increased staining intensity for PKCβ”.

In the case of `CN(C)C(=O)Oc1ccc[n+](C)c1` [Pyridostigmine], the “caspase-3 activation induced by Thapsi, with co-treatment” value (activated caspase-3) is reported as “inhibited the activation of caspase-3 induced by Thapsi”.

With `Cc1c2oc3c(C)ccc(C(=O)N[C@@H]4C(=O)N[C@H](C(C)C)C(=O)N5CCC[C@H]5C(=O)N(C)CC(=O)N(C)[C@@H](C(C)C)C(=O)O[C@@H]4C)c3nc-2c(C(=O)N[C@@H]2C(=O)N[C@H](C(C)C)C(=O)N3CCC[C@H]3C(=O)N(C)CC(=O)N(C)[C@@H](C(C)C)C(=O)O[C@@H]2C)c(N)c1=O` [actinomycin D, Actinomycin D] (I: T[dV]P[Sar][NMeV] / II: T[dV]P[Sar][NMeV]; ester I:1-I:C, II:1-II:C; linker I:N-II:N via Actinocin(9to1)) the “caspase-3 activation induced by Thapsi, with co-treatment” value (activated caspase-3) was “inhibited”.

In the case of “ARP: human AChE-R C-terminal peptide GMQGPAGSGWEEGSGSPPGVTPLFSP (ARP peptide (synthetic))”, the “immunoreactivity of Bcl-2” value (Bcl-2) is reported as “decrease in the immunoreactivity of Bcl-2”, the “expression of the AChE-S variant (immunohistochemistry)” value (AChE-S) is reported as “decrease of expression of the AChE-S variant” and the “staining intensity for PKCβ” value (PKCβII) is reported as “increased staining intensity for PKCβ”. For the same compound, the “level of AChmiRNA” value (AChmiRNA (miRNA-181a); Meg-01 cells treated for 24 hours, agent alone) was “decreased the level of AChmiRNA”, the “ploidy (DNA content)” value (Meg-01 cells [1]) was “increased ploidy” and the “nuclear area / nuclei size” value (Meg-01 cells [2]) was “increased”. For the same compound, the “cell surface morphology (scanning electron microscopy)” value (Meg-01 cells [3]) was “induced cell surface modifications”, the “incidence of activated caspase-3 positive cells” value (activated caspase-3; 24 hours, agent alone) was “increased the fraction of cells immunopositive for activated caspase-3” and the “AChE-R mRNA level (RT-PCR)” value (AChE-R mRNA; 24 hours) was “increased the level of AChE-R mRNA”. For the same compound, the “AChE-R mRNA level by FISH (population distribution)” value (AChE-R mRNA; agent alone) was “rightward shift in the population distribution of labeling intensity”, the “AChE-R protein level (immunohistochemistry)” value (AChE-R) was “increase also in the protein level” and the “DNA fragmentation / cell death (TUNEL)” value (Meg-01 cells [4]) was “no significant changes”. The “incidence of activated caspase-9 positive cells” value (activated caspase-9) was “increased the incidence of positive cells for activated caspase-9 immunostaining”.

In the case of Bisindolylmaleimide [BIM], the “AChmiRNA levels on co-treatment with Thapsi” value (AChmiRNA (miRNA-181a)) is reported as “restored the control levels of AChmiRNA”, the “ARP-induced decrease of AChmiRNA on co-treatment” value (AChmiRNA (miRNA-181a)) is reported as “prevented the ARP effect” and the “caspase-3 activation induced by Thapsi or ARP, with co-treatment” value (activated caspase-3; 24 hours) is reported as “inhibited the activation of caspase-3 induced by both treatments”. For the same compound, the “increase in AChE-R immunoreactivity elicited by Thapsi or ARP, with co-treatment” value (AChE-R) was “blocked the characteristic increase in AChE-R immunoreactivity”.

For IFN-γ: interferon (IFN)-γ, the “Nitrite concentration reflecting NO production” value ([5]; RAW 264.7, 6 hours) was 8 µM, the “Nitrite concentration reflecting NO production” value ([5]; RAW 264.7, 12 hours) was 26 µM and the “Nitrite concentration reflecting NO production” value ([5]; RAW 264.7, 24 hours) was 54 µM.

For “SEQ ID NO:20: similar oligo with an inverse sequence to AChmiON, used as negative control (CCACGUCCUCUUGCACCGUC; similar oligo to AChmiON, chemistry not explicitly stated, further chemistry not given here)”, the “effect on the AChE splice shift” value (AChE-R mRNA; negative control oligo, data not shown) was “no significant effect on the AChE splice shift”.

With “miR-132 mut2A>G: miR-132 mimic with single mismatch in second nucleotide: TG+ACA+GTC+TAC+AGC+CAT+GGT+CG (TGACAGTCTACAGCCATGGTCG; LNA at 3, 6, 9, 12, 15, 18, 21, other sugars and backbone not given here)” the “binding to PCR-amplified AChE 3′UTR (dot blot signal)” value (“binding to PCR-amplified AChE 3′UTR” below) [6] was “detectable signal only when bound to 50 ng of PCR product”.

“miR-182* mimic: LNA-modified oligo mimicking miR-182*: TG+GTT+CTA+GAC+TTG+CCA+ACT+A (TGGTTCTAGACTTGCCAACTA; LNA at 3, 6, 9, 12, 15, 18, 21, other sugars and backbone not given here)” was tested, and the “activation of macrophage cell lines by LPS (NO production) after transfection” value (RAW 264.7 cells; LPS-exposed RAW-264.7 cells transfected with oligo (Example 13)) was “somewhat less prominently”, the “endotoxin response (NO production) after transfection” value (RAW 264.7 cells; RAW 264.7 cells transfected or electroporated, then endotoxin challenge (Example 11)) was “significantly attenuate endotoxin response” and the “binding to PCR-amplified AChE 3′UTR” value [6] was “significant binding to 20 ng doses of PCR product”.

In the case of “miR-182* mut2G>A: miR-182* mimic with single mismatch in second nucleotide: TA+GTT+CTA+GAC+TTG+CCA+ACT+A (TAGTTCTAGACTTGCCAACTA; LNA at 3, 6, 9, 12, 15, 18, 21, other sugars and backbone not given here)”, the “binding to PCR-amplified AChE 3′UTR” value [6] is reported as “disappeared altogether”.
